{"source": "ChEMBL document CHEMBL1139643", "about": "“Cell differentiation inducers derived from thalidomide” (2005)", "assay_type_in_all_cases": "functional", "key": {"HL-60 [1]": {"system": "HL-60", "assay": "Percent cell proliferation of human leukemia cell line HL-60 at 1*E-5 M"}, "HL-60 [2]": {"system": "HL-60", "assay": "NBT positivity against human leukemia cell line HL-60 at 1*E-5 M"}, "HL-60 [3]": {"system": "HL-60", "assay": "NBT positivity against human leukemia cell line HL-60 at 5*E-6 M"}, "HL-60 [4]": {"system": "HL-60", "assay": "Percent cell proliferation of human leukemia cell line HL-60 at 1*E-6 M"}, "HL-60 [5]": {"system": "HL-60", "assay": "NBT positivity against human leukemia cell line HL-60 at 1*E-6 M"}, "HL-60 [6]": {"system": "HL-60", "assay": "Percent cell proliferation of human leukemia cell line HL-60 at 3*E-6 M"}, "HL-60 [7]": {"system": "HL-60", "assay": "Percent cell proliferation of human leukemia cell line HL-60 at 5*E-6 M"}, "HL-60 [8]": {"system": "HL-60", "assay": "NBT positivity against human leukemia cell line HL-60 at 3*E-6 M"}, "HL-60 [9]": {"system": "HL-60", "assay": "NBT positivity against human leukemia cell line HL-60 at 1*E-8 M"}, "HL-60 [10]": {"system": "HL-60", "assay": "Percent cell proliferation of human leukemia cell line HL-60 at 1*E-8 M"}, "HL-60 [11]": {"system": "HL-60", "assay": "NBT positivity against human leukemia cell line HL-60 at 2*E-9 M"}, "HL-60 [12]": {"system": "HL-60", "assay": "Percent cell proliferation of human leukemia cell line HL-60 at 2*E-9 M"}}}
{"molecule": "CC1(N2C(=O)c3ccc(N)cc3C2=O)CCC(=O)NC1=O", "note": "(stereo not drawn)", "values": [{"measurement": "Cell proliferation", "setting": "HL-60 [1]", "value": 103, "unit": "%"}, {"measurement": "NBT positivity", "setting": "HL-60 [2]", "value": 1, "unit": "%"}]}
{"molecule": "CC1(N2C(=O)c3cccc(N)c3C2=O)CCC(=O)NC1=O", "note": "(stereo not drawn)", "values": [{"measurement": "Cell proliferation", "setting": "HL-60 [1]", "value": 92, "unit": "%"}, {"measurement": "NBT positivity", "setting": "HL-60 [2]", "value": 2, "unit": "%"}]}
{"molecule": "CC(C)c1cccc(C(C)C)c1N1C(=O)c2ccc(O)cc2C1=O", "values": [{"measurement": "NBT positivity", "setting": "HL-60 [3]", "value": 55, "unit": "%"}, {"measurement": "Cell proliferation", "setting": "HL-60 [4]", "value": 94, "unit": "%"}, {"measurement": "NBT positivity", "setting": "HL-60 [5]", "value": 3, "unit": "%"}, {"measurement": "Cell proliferation", "setting": "HL-60 [6]", "value": 43, "unit": "%"}, {"measurement": "Cell proliferation", "setting": "HL-60 [7]", "value": 10, "unit": "%"}, {"measurement": "NBT positivity", "setting": "HL-60 [8]", "value": 8, "unit": "%"}]}
{"molecule": "O=C1CCC(N2C(=O)c3ccccc3C2=O)C(=O)N1O", "note": "(stereo not drawn)", "values": [{"measurement": "Cell proliferation", "setting": "HL-60 [1]", "value": 100, "unit": "%"}, {"measurement": "NBT positivity", "setting": "HL-60 [2]", "value": 1, "unit": "%"}]}
{"molecule": "CC(C)c1cccc(C(C)C)c1N1C(=O)c2cccc(O)c2C1=O", "values": [{"measurement": "Cell proliferation", "setting": "HL-60 [1]", "value": 76, "unit": "%"}, {"measurement": "NBT positivity", "setting": "HL-60 [2]", "value": 3, "unit": "%"}]}
{"molecule": "CC(C)c1cccc(C(C)C)c1N1C(=O)c2ccccc2C1=O", "values": [{"measurement": "Cell proliferation", "setting": "HL-60 [1]", "value": 24, "unit": "%"}, {"measurement": "NBT positivity", "setting": "HL-60 [2]", "value": 9, "unit": "%"}]}
{"molecule": "CC(C)c1cccc(C(C)C)c1N1C(=O)c2cccc(N)c2C1=O", "values": [{"measurement": "Cell proliferation", "setting": "HL-60 [1]", "value": 25, "unit": "%"}, {"measurement": "Cell proliferation", "setting": "HL-60 [6]", "value": 73, "unit": "%"}, {"measurement": "NBT positivity", "setting": "HL-60 [2]", "value": 16, "unit": "%"}, {"measurement": "NBT positivity", "setting": "HL-60 [8]", "value": 2, "unit": "%"}]}
{"molecule": "CC(C)c1cccc(C(C)C)c1N1C(=O)c2ccc(N)cc2C1=O", "values": [{"measurement": "Cell proliferation", "setting": "HL-60 [1]", "value": 53, "unit": "%"}, {"measurement": "NBT positivity", "setting": "HL-60 [2]", "value": 5, "unit": "%"}]}
{"molecule": "C=C1/C(=C\\C=C2/CCC[C@]3(C)[C@@H]([C@H](C)CCCC(C)(C)O)CC[C@@H]23)C[C@@H](O)C[C@@H]1O", "note": "[CALCITRIOL]", "values": [{"measurement": "NBT positivity", "setting": "HL-60 [9]", "value": 39, "unit": "%"}, {"measurement": "Cell proliferation", "setting": "HL-60 [10]", "value": 55, "unit": "%"}]}
{"molecule": "O=C1CCC(N2C(=O)c3ccccc3C2=O)C(=O)N1", "note": "(stereo not drawn) [THALIDOMIDE]", "values": [{"measurement": "Cell proliferation", "setting": "HL-60 [1]", "value": 101, "unit": "%"}, {"measurement": "NBT positivity", "setting": "HL-60 [2]", "value": 1, "unit": "%"}]}
{"molecule": "CC1=C(/C=C/C(C)=C/C=C/C(C)=C/C(=O)O)C(C)(C)CCC1", "note": "[TRETINOIN]", "values": [{"measurement": "NBT positivity", "setting": "HL-60 [11]", "value": 52, "unit": "%"}, {"measurement": "Cell proliferation", "setting": "HL-60 [12]", "value": 45, "unit": "%"}]}
